Data published in PubChem BioAssay (NCI).
Several values for one entry are separate records, joined by “and”; a condition that tells them apart may be missing. Identical values can stand only once.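 In this assay, cells in 96-well plates receive the compound at five concentrations for 48 hours. Endpoints are linearly interpolated between the surrounding concentrations. Here, GI50 denotes the concentration required for 50% inhibition of growth. The concentration for full growth arrest is given as TGI.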

Experiments:
Assay in all cases: growth of human tumour cells (NCI), 48 h
SK-MEL-5 melanoma = tested on: SK-MEL-5 melanoma
HT29 colon = tested on: HT29 colon
EKVX NSCLC = tested on: EKVX NSCLC
A498 renal = tested on: A498 renal
TK-10 renal = tested on: TK-10 renal
SF-539 CNS = tested on: SF-539 CNS
NCI-H23 lung = tested on: NCI-H23 lung
SNB-19 CNS = tested on: SNB-19 CNS
RPMI-8226 leukemia = tested on: RPMI-8226 leukemia
HL-60(TB) leukemia = tested on: HL-60(TB) leukemia

Row | SMILES | GI50 (SK-MEL-5 melanoma) [µM] | TGI (SK-MEL-5 melanoma) [µM] | GI50 (HT29 colon) [µM] | TGI (HT29 colon) [µM] | GI50 (EKVX NSCLC) | TGI (EKVX NSCLC) | GI50 (A498 renal) [µM] | TGI (A498 renal) [µM] | GI50 (TK-10 renal) | TGI (TK-10 renal) [µM] | GI50 (SF-539 CNS) [µM] | GI50 (NCI-H23 lung) | TGI (NCI-H23 lung) [µM] | GI50 (SNB-19 CNS) [µM] | TGI (SNB-19 CNS) [µM] | GI50 (RPMI-8226 leukemia) | TGI (RPMI-8226 leukemia) | GI50 (HL-60(TB) leukemia) | TGI (HL-60(TB) leukemia) | TGI (SF-539 CNS) [µM]
1 | COc1ccc(-c2nn(-c3ccc(NC(=O)c4ccc(Cl)c(C(F)(F)F)c4)cc3)cc2-c2ccncc2)cc1Cl | 1.33 | 3.84 | 0.337 | 1.96 | 1.87 µM | > 100 µM | 0.237 | 4.47 | 1.71 µM | > 32.8 | 0.5 | 2.15 µM | > 100 | 1.96 | > 100 | 0.39 µM | > 100 µM | 0.794 µM | > 100 µM | –
2 | O=C(CCN1CCOCC1)Nc1ccc(F)cc1F | – | > 100 | – | > 100 | – | > 100 µM | – | > 100 | – | > 100 | – | – | > 100 | – | > 100 | – | > 100 µM | – | > 100 µM | > 100
3 | COC(=O)CCC(C)[C@H]1CCC2C3C(C[C@H](OC(C)=O)[C@@]21C)[C@@]1(C)CCC2(C[C@H]1C[C@H]3OC(C)=O)OOC1(CCC(C)CC1)OO2 (some centres undefined) | – | > 100 | – | > 100 | 3.79 µM and 10.1 µM | 21.5 µM and 52.4 µM | – | > 100 | 10.8 µM and > 100 µM | > 100 | – | 7.74 µM and 15.6 µM | > 100 | – | > 100 | 1.28 µM and 3.15 µM | 6.34 µM and 17.2 µM | 3.36 µM and 14.9 µM | 27.7 µM and > 100 µM | > 100
4 | N#CNC(N)=NCCO | – | > 100 | – | > 100 | – | > 100 µM | – | > 100 | – | > 100 | – | – | > 100 | – | > 100 | – | > 100 µM | – | > 100 µM | > 100
5 | Cc1oc2nc[nH]c(=O)c2c1C(=O)/C=C/c1ccc(Cl)cc1 | 2.25 | 5.85 | 2.9 | 10.6 | 2.37 µM | 15.9 µM | 1.48 | 5.83 | 5.09 µM | 13.6 | 2.37 | 2.51 µM | 15.3 | 3.28 | 13.7 | 1.66 µM | 5.16 µM | 2.64 µM | 7.78 µM | 6.71
6 | CCOC(=O)c1cc(/C=C/C(C)=C/C(=O)OC)oc1-c1ccccc1 | – | > 100 | – | > 100 | – | > 100 µM | – | > 100 | – | > 100 | – | – | > 100 | – | > 100 | – | > 100 µM | – | > 100 µM | > 100
7 | NC(=O)c1cc(-c2ccncc2)cc(-c2ccccc2)c1N | 14.7 | > 25 | > 25 | > 25 | > 20.2 µM | > 25 µM | 4.64 | 21.9 | 6.43 µM | > 25 | 10.8 | > 25 µM | > 25 | > 25 | > 25 | 11.6 µM | > 25 µM | > 25 µM | > 25 µM | > 25
8 | CCCCN(CCCC)c1ccc(C(=N)c2ccc(N(C)C)cc2)cc1 | 0.505 | 1.7 | 0.292 | 1.08 | 0.334 µM | 1.45 µM | 0.178 | 1.8 | 0.643 µM | 1.84 | 1.53 | 0.278 µM | 0.981 | 0.951 | 2.37 | 0.224 µM | 0.737 µM | 0.336 µM | 1.16 µM | 3.16
9 | [N-]=[N+]=Nc1ccc(CCN2CCN(c3cccc(C(F)(F)F)c3)CC2)cc1I | – | > 100 | – | > 100 | – | > 100 µM | – | > 100 | – | > 100 | – | – | > 100 | – | > 100 | – | 69.4 µM | – | 45.2 µM | > 100
10 | COc1cc(N2CCN(C(C)C)CC2)ccc1Nc1nc(Nc2cccc3ncccc23)c2cc[nH]c2n1 | 3.41 | 6.66 | 1.5 | 5.54 | 8.83 µM | > 25 µM | 0.811 | 12 | 3.97 µM | 19.4 | 3.94 | 5.7 µM | > 25 | 8.99 | > 25 | 5.68 µM | 17.8 µM | 3.26 µM | 14.8 µM | 8.15
11 | CC(C)(C)N/N=C(\Cc1occc(=O)c1O)C(=O)Nc1ccc([N+](=O)[O-])cc1[N+](=O)[O-] | – | > 100 | – | > 100 | – | > 100 µM | – | > 100 | – | > 100 | – | – | > 100 | – | > 100 | – | > 100 µM | – | > 100 µM | > 100
12 | Cc1c(C(=O)CC(=O)C(=O)Nc2c(C(C)C)cccc2C(C)C)[n+](=O)c2ccccc2n1[O-] | – | 24.4 | – | 13.9 | – | 29 µM | – | 49.6 | – | 60.2 | – | – | 34 | – | 37.9 | – | 15.4 µM | – | 6.91 µM | 17.5
13 | COc1cc([N+](=O)[O-])c(S(=O)(=O)O)cc1NS(=O)(=O)c1ccc(C)cc1 | – | > 100 | – | > 100 | – | > 100 µM | – | > 100 | – | > 100 | – | – | > 100 | – | > 100 | – | > 100 µM | – | > 100 µM | > 100
14 | C=CCn1c(=O)c2cnc(Nc3ccc(N4CCN(C)CC4)cc3)nc2n1-c1ccc2c(n1)[C@@](O)(CC)CC2 | 0.3 | 1.27 | 0.261 | 4.49 | 1.12 µM | 22.5 µM | 0.161 | 3.62 | 1.41 µM | 49.2 | 0.175 | 0.25 µM | 1.42 | 1.85 | > 100 | 1.74 µM | 14.5 µM | 0.189 µM | 1.3 µM | 0.68
